Drawing on PubChem BioAssay (NCI), this text covers TGI and GI50 for nine compounds.

Where “and” joins values, the source holds several entries; their conditions need not be identical. Equal values may be shown once.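 All cell lines were grown in 96-well plates and treated with compound for 48 hours. The concentration for 50% growth inhibition is given as GI50. TGI: total growth inhibition.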

Holding throughout (experiment): growth of human tumour cells (NCI), 48 h
The test system of assay [1] is HCT-116 colon.
Assay [2] relates to SF-295 CNS.
In assay [3] the test system is NCI-H23 lung.
The test system of assay [4] is SR leukemia.
Assay [5] relates to NCI-H226 lung.
Assay [6] deals with SK-MEL-28 melanoma.
For assay [7], the system named is MALME-3M melanoma.
Assay [8] relates to SW-620 colon.
The subject of assay [9] is ACHN renal.
Assay [10] has as its system OVCAR-5 ovarian.

Regarding `Cc1cc2c3ccccc3n(C)c2c2c1C(=O)c1ccccc1C2=O`, the TGI in assay [1] was determined as 32.4 µM; in assay [2] it was 41.2 µM; in [3] it was 44 µM; in assay [4] it was 22.5 µM; in assay [5] it was 30.5 µM; in assay [6], 65 µM. Moreover, the TGI in assay [7] was 35.4 µM; in assay [8], > 100 µM.

Turning to `O=C1Cc2cc(CCn3ccnc3)c(Cl)cc2N1`, the GI50 was 13.1 µM in assay [1]; 7.87 µM in assay [2]; 20.3 µM in [9]; 40.8 µM in assay [3]; 9.24 µM in assay [4]; > 100 µM in assay [5]. In addition, the GI50 was 29.7 µM in assay [6], 79.5 µM in [7], 44.8 µM in assay [10] and 5.02 µM in [8]. Moreover, the TGI in assay [1], in [2], in [9], in [3], in assay [4] and in [5] was > 100 µM each time. Moreover, the TGI in [6], in [7], in assay [10] and in [8] was > 100 µM each time.

Take `Nc1nc(-c2ccccc2)c(-c2ccccc2)c(-c2nc(N)nc(-c3ccccc3)c2-c2ccccc2)n1`: the TGI in assay [1], in assay [2], in [9], in assay [3], in assay [4] and in [5] was > 100 µM in each case. Also, the TGI in [6], in assay [7], in assay [10] and in assay [8] was > 100 µM in each case.

On to `COc1cc2c(cc1OCCCCNC(=O)c1cc3ccccc3[nH]1)N=CC1CCCN1C2=O` (stereo not drawn), for which the GI50 in [1] was 35.9 µM; in assay [2], 12.7 µM; in assay [9] it was 22.6 µM; in assay [3] it was 28.4 µM; in [4], > 100 µM; in assay [5], 30.7 µM. Further, the GI50 in assay [6] is 37.5 µM; in assay [7], 20 µM; in [10], 22.9 µM; in assay [8], 9.84 µM. In addition, the TGI in assay [1] is > 100 µM; in assay [2] it was 41.6 µM; in assay [9], > 100 µM; in assay [3] it was > 100 µM; in [4], > 100 µM; in assay [5] it was > 100 µM. The TGI in [6] was > 100 µM; in assay [7] it was 47.7 µM; in [10] it was > 100 µM; in assay [8], 67.6 µM.

On to `N/C(=N\O)c1ncc(-c2ccc(C(F)(F)F)cc2)c(NC2CCCCCC2)n1`, for which the GI50 in assay [1] was 3.95 µM and 1.41 µM; in [2], 2.55 µM; in [9] it was 4.49 µM and 2.23 µM; in [3], 3.76 µM; in assay [4], 4.49 µM and 1.52 µM; in [5], 4.24 µM. The GI50 is 5.38 µM in [6]; 3.81 µM in assay [7]; 4.51 µM in assay [10]; 4.92 µM and 3.88 µM in assay [8]. Moreover, the TGI in assay [1] came to 11.9 µM; in assay [2], 12.5 µM; in assay [9], 13.3 µM; in assay [3] it was 16.3 µM; in [4], 6.68 µM; in [5], 26.8 µM. For the same compound, the TGI in assay [6] was determined as 19 µM; in [7] it was 13.9 µM; in assay [10], 19.3 µM; in assay [8], 15.4 µM.

`O=S(=O)(NCCNc1nccc(-c2c(-c3cccc(O)c3)nc3sccn23)n1)c1ccc(F)cc1`: the GI50 in assay [1] was 3.26 µM; in [9] it was 3.53 µM; in assay [3], 11.1 µM; in assay [4], 2.65 µM; in assay [5] it was 7.03 µM; in assay [6], 0.66 µM. The results for the GI50 in [10] and in [8] were 17.8 µM and 5.95 µM, respectively. The TGI worked out at 27.1 µM in assay [1]; 28.4 µM in assay [9]; 38.2 µM in [3]; 57.3 µM in assay [4]; 45 µM in assay [5]; 24 µM in [6]. The TGI in assay [10] is 64.6 µM; in [8], 36.9 µM.

In the case of `c1cncc(CNc2ccccc2-c2nnc(Nc3ccc4c(c3)OCO4)o2)c1`, the GI50 in assay [1] is 0.0516 µM; in assay [2], 0.0528 µM; in assay [9] it was 0.717 µM; in assay [3] it was 0.0662 µM; in assay [4] it was 0.0361 µM; in assay [6], 0.0654 µM. Besides, the GI50 was 0.0744 µM in assay [7], 0.347 µM in assay [10] and 0.0413 µM in assay [8]. The TGI in assay [1], in [2], in [9], in assay [3], in assay [4] and in assay [6] was > 100 µM in each case. Also, the TGI in assay [7], in [10] and in assay [8] was > 100 µM in each case.

In the case of `CC(=O)Nc1ccc2nncnc2c1`, the TGI in assay [1], in [2], in assay [9], in [3], in [4] and in assay [5] was > 100 µM each time. Further, the TGI in assay [6], in assay [10] and in assay [8] was > 100 µM throughout.

In the case of `C=C1CC[C@@H]2C(C)(C)[C@@H](O)CC[C@@]2(C)[C@@H]1COc1ccc2ccc(=O)oc2c1`, the GI50 in assay [1] is 11.1 µM; in [2] it was 10.5 µM; in assay [9], 14.3 µM; in [3], 13.8 µM; in assay [4] it was 19.4 µM; in [6], 15.1 µM. Further, the results for the GI50 in [10] and in [8] were 18.7 µM and 18.8 µM, respectively. In addition, the TGI in assay [1] worked out at 28 µM; in [2] it was 22.9 µM; in assay [9], 29.2 µM; in assay [3], 33.8 µM; in assay [4], 83.9 µM; in [6] it was 30.1 µM. The TGI in assay [7] is 31.2 µM; in [10] it was 39.9 µM; in assay [8], 44 µM.
